Experiment: Treatment of a dog with soft tissue sarcoma and lung metastasis by pulmonary aerosol administration
Type: in vivo, dog (Golden Retriever)
Settings: agent aerosolized alone, without emulsion; general observation
Method: A 9 year old Golden Retriever with soft tissue sarcoma and extensive lung metastasis was treated with 9 mg/ml twice weekly for 10 weeks by pulmonary aerosol administration (FIG. 7A & FIG. 7B). […]

Nc1ccn([C@@H]2O[C@H](CO)[C@@H](O)C2(F)F)c(=O)n1 [Gemcitabine, gemcitabine]
necrosis in lung parenchyma and pleural metastasis: severe necrosis is always observed
